ChEMBL document CHEMBL1201862, “PubChem BioAssay data set” (2004)
Active and inactive are the calls of the source.

Columns and labels:
HEK293 = experiment: EBV LMP1 TES2 canonical NF-kB signalling blockers – cell-based, HEK293, luciferase, cherry-pick, dose response (AID 588343); format: functional; conditions: Homo sapiens
[1] = A549 cell cytotoxicity, dose response, cytotoxicity control, plate reader, cherry-pick, antagonist series (AID 743412); format: functional, cell-based
[2] = blockade of melanocortin 4 receptor signaling – cell-based, plate reader, cherry pick, counter-screen for LGR2 antagonist project, dose response (AID 743444); format: functional;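 note: transfected HEK 293 cells stimulated with alpha-MSH peptide; potency of inhibitors of the alpha-MSH evoked signal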
[3] = blockers of bursicon-stimulated LGR2 cAMP reporter – cell-based, HEK293, CRE-luciferase reporter, cherry pick, set 2, dose response (AID 743343); format: functional;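 note: transfected cells were stimulated with diluted bursicon conditioned medium after compound addition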
[4] = biological target: T1, Replicative DNA helicase DnaB (Mycobacterium tuberculosis, UniProt P9WMR3); experiment: DnaB intein splicing inhibitors, dose response, biochemical, cell-free fluorescence (AID 449749); format: functional
T1 sequence (P9WMR3 whole entry): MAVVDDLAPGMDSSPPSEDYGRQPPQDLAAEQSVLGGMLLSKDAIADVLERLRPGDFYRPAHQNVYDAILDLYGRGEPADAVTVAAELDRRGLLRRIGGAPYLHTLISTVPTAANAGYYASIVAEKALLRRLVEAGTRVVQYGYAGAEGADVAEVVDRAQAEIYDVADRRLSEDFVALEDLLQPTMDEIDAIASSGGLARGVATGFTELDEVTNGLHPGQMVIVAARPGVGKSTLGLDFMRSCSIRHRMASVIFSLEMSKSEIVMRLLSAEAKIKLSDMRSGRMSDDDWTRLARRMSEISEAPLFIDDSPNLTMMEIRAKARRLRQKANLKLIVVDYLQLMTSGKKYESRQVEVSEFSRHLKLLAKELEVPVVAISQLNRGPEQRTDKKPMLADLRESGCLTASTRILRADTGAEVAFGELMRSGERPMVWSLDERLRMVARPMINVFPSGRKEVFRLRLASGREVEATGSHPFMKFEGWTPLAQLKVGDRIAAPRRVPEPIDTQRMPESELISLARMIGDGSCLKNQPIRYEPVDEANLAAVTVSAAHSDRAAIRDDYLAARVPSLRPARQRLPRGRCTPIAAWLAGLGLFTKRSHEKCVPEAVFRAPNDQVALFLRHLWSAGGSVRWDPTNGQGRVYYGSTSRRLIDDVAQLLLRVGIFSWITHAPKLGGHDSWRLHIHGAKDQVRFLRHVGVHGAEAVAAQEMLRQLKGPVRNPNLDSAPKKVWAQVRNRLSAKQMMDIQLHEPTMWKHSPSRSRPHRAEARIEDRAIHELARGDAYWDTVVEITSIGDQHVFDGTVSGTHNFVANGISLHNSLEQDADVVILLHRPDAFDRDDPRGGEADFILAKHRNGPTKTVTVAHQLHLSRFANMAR

[5] = biological target: T2, Sentrin-specific protease 8 (Homo sapiens, UniProt Q96LD8); format: functional
T2 sequence (Q96LD8 whole entry): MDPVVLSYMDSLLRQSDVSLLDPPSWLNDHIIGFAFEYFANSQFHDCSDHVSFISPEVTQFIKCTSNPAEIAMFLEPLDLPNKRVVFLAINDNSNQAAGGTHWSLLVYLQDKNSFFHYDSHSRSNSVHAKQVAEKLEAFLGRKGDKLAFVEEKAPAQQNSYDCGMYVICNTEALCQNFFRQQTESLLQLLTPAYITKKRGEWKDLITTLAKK

[6] = biological target: T2, Sentrin-specific protease 8; format: functional; remark: listed apart in the source
Protein RecA = biological target: T3, Protein RecA (Mycobacterium tuberculosis, UniProt P9WHJ3); experiment: Fluorescence Cell-Free Homogeneous Dose Retest to Identify Inhibitors of RecA-Intein Splicing Activity. [Related pubchem assays (depositor defined):AID2097, AID2223, AID489010, AID492950]; format: functional
T3 sequence (P9WHJ3 whole entry): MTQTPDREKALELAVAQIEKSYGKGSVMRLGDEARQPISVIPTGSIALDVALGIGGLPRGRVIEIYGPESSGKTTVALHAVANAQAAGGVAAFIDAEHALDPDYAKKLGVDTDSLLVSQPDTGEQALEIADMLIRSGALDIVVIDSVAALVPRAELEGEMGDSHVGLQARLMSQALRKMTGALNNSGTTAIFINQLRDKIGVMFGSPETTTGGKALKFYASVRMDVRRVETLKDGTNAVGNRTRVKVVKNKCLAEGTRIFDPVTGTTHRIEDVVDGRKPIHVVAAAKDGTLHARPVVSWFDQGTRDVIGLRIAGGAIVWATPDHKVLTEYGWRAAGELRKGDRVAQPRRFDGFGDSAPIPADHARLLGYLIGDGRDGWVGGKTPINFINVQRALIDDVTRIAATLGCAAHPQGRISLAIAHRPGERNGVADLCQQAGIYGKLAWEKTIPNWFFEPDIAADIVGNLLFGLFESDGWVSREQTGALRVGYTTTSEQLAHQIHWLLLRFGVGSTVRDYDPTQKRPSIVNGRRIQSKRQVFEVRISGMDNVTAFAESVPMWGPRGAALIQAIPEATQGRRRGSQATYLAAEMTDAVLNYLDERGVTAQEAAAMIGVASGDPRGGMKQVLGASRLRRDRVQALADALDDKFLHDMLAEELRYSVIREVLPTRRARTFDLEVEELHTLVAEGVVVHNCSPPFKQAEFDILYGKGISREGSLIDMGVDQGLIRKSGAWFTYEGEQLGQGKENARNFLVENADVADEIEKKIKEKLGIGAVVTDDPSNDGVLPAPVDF

[7] = Dd2 malaria parasite growth inhibition potency – SYBR Green, dry powder samples, dose response (AID 1159566); format: functional, cell-based;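 note: potency for growth inhibition with lower SYBR green DNA signal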
[8] = growth inhibition of PfATP4-mutant resistant parasites – NITD609-resistant line, SYBR Green, dry powder, dose response (AID 1159571); format: functional, cell-based;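 note: parasites synchronized at ring stage by sorbitol before testing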
[9] = toxicity to human HepG2 hepatoma cells – cell-based, plate reader, dry powder samples, cytotoxicity control, dose response (AID 1159569); format: functional;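 note: inhibitor potency with signal falling toward the positive control level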
[10] = P. falciparum Dd2 growth inhibitors, dose response, SYBR Green, cherry-picked samples (AID 1159567); format: functional, cell-based
[11] = growth inhibition of yeast DHODH-expressing 3D7 parasites – SYBR Green, dry powder samples, dose response (AID 1159570); format: functional, cell-based;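 note: parasite growth measured after 72 hours of compound exposure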
[12] = toxicity toward HepG2 liver cells – cell-based, plate reader, cherry-pick, antagonist series, cytotoxicity control, dose response (AID 743416); format: functional
[13] = luciferase reporter signal suppression in cells – H4 neuroglioma cells, luminescence, dose response (AID 1990); format: functional, cell-based
[14] = alpha-synuclein stem-loop luciferase translation blockers – H4 neuroglioma cells, luminescence, confirmation (AID 1988); format: functional, cell-based
[15] = Luminescence Cell-Based Dose Response HTS to Identify Inhibitors of 5'UTR Stem-Loop Driven Prion Protein mRNA Translation in H4 Neuroglioblastoma Cells. [Related pubchem assays: 1827 (Project Summary), 1813 (Primary HTS)]; format: functional
[16] = blockers of HIV-1 ZM109 envelope-driven cell-cell fusion – HeLa effector, CEM target cells, luciferase, cherry-pick, dose response (AID 652058); format: functional, cell-based;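 note: luciferase signal from HIV-1 Env mediated cell-cell fusion of effector and target cells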
[17] = HIV-1 AD8 envelope cell-cell fusion blockers – cherry-pick, dose response (AID 652062); format: functional, cell-based;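 note: luciferase signal from cell-cell fusion driven by HIV-1 clade B AD8 Env; potency is for inhibitors of fusion seen as a drop in luminescence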
[18] = blockers of HIV-1 envelope-mediated cell-cell fusion – cherry-pick, dose response (AID 652057); format: functional, cell-based
Paired box protein Pax-8 = Paired box protein Pax-8 (Homo sapiens, UniProt Q06710); experiment: PAX8 transcriptional activity inhibition in RMG-I – RMG-I cells, luciferase, cherry-pick, dose response (AID 687027); format: functional, cell-based;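 note: luciferase reporter driven by Pax8 target thyroperoxidase promoter measured by SteadyGlo luminescence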
Paired box protein Pax-8, sequence (Q06710 whole entry): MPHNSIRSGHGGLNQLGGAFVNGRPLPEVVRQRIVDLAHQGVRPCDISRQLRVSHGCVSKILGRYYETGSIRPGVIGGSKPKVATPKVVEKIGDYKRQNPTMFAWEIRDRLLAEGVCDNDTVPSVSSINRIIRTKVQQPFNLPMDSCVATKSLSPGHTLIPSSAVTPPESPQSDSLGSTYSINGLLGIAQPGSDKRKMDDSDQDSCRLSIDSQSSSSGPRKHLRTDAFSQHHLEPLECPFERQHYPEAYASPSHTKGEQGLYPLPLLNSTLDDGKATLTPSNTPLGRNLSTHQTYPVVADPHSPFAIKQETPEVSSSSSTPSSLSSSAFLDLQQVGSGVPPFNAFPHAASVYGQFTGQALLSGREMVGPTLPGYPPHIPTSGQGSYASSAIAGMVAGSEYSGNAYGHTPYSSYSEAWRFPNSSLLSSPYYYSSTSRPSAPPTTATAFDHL

Compound	AC50 [2]	AC50 [3]	AC50 [7]	AC50 [8]	AC50 [9]	AC50 [10]	AC50 [11]	further results
COc1ccc(-n2cc(C(=O)c3ccccc3O)cn2)cc1	10.7 µM (active)	8.21 µM (active)						AC50 (HEK293): 2.43 µM (active); AC50 [1]: > 52 µM (inactive)
Cc1[nH][nH]c(=O)c1C(c1ccc(-c2ccc(Cl)c(Cl)c2)o1)c1c(C)[nH][nH]c1=O								AC50 [4]: 0.281 µM (active); IC50 [5]: 18.8 µM (active); IC50 [6]: 8.73 µM (active); EC50 (Protein RecA): 0.305 µM (active)
C[C@H]1CN([C@@H](C)CO)C(=O)c2c(c3ccccc3n2C)-c2ccccc2CO[C@H]1CN(C)S(=O)(=O)c1ccc(Cl)cc1			0.108 µM (active)	0.154 µM (active)	41.2 µM (active)	0.396 µM (active)	0.134 µM (active)	
C=CCN1CCN(C(=O)CCCc2ccccc2)CC1	8.87 µM (active)	5.97 µM (active)						AC50 [12]: > 52 µM (inactive); EC50 [13]: 7.4 µM (inconclusive); EC50 [14]: 3.79 µM (active); EC50 [15]: 6.53 µM (active)
CO[C@@H]1CN(C)C(=O)c2cc(NC(C)=O)ccc2OC[C@@H](C)N(Cc2ccc(F)cc2)C[C@@H]1C	10.7 µM (active)	42.9 µM (active)						AC50 [1]: > 47 µM (inactive)
COc1ccc2c3c([nH]c2c1)[C@H](CO)N(C(=O)Nc1ccc(F)cc1)CC31CCN(S(=O)(=O)c2ccccc2)CC1			1.3 µM (active)	0.417 µM (active)	48.9 µM (active)	0.909 µM (active)	2.14 µM (active)	
C[C@H](CO)N1C[C@H](C)[C@@H](CN(C)C(=O)Nc2ccc(F)cc2)OCc2ccccc2-c2c(n(C)c3ccccc23)C1=O			0.348 µM (active)	0.397 µM (active)	46.8 µM (active)	0.907 µM (active)	0.662 µM (active)	AC50 [16]: < 0.26 µM (active); AC50 [17]: < 0.26 µM (active); AC50 [18]: < 0.26 µM (active); AC50 (Paired box protein Pax-8): 24.6 µM (active)
